# Molecular target: Mcl-1 protein (Homo sapiens, UniProt Q07820)
# Experiment: Inhibition of Mcl-1 by the fluorescence polarisation technique (Method 1 or Method 2)
# Format: binding
# Details: fluorescence polarisation, Fluorescein labelled ligand; Method 1 (not underlined) or Method 2 (underlined); read-out: IC50 (μM) Mcl-1 FP
# In short: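 Fluorescence polarisation competition of 11-point compound dilutions (5% DMSO final) against fluorescein-labelled ligand for Mcl-1. Method 1: 1 nM ligand, 5 nM protein in 10 mM HEPES, 150 mM NaCl, 0.05% Tween 20, pH 7.4; Method 2: 10 nM ligand, 10 nM protein in 20 mM Na2HPO4, 1 mM EDTA, 50 mM NaCl, pH 7.4.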
# Chain of Mcl-1 protein (Q07820 whole entry): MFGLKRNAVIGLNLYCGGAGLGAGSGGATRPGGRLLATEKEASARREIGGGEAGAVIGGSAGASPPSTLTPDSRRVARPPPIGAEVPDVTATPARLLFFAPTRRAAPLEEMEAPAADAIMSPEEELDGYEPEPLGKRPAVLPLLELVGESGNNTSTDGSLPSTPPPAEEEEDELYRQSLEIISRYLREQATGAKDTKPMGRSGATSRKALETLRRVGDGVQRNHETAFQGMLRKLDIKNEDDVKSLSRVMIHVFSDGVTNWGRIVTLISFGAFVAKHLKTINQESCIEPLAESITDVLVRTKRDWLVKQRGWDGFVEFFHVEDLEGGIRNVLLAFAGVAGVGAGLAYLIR
row,Structure (SMILES),IC50 [µM]
1,"Cc1c(Cl)cccc1-c1c(C2CC2)sc2ncnc(NC(Cc3ccccc3)C(=O)O)c12 [Example 217, N-[(5Sa)-5-(3-chloro-2-methylphenyl)-6-cyclopropyl-thieno[2,3-d]pyrimidin-4-yl]-D-phenylalanine]",0.065
2,"CCc1sc2ncnc(NC(Cc3ccccc3)C(=O)O)c2c1-c1cccc2c1c(Cl)cn2CCN(C)C [Example 230, N-((5Sa)-5-{3-chloro-1l-[2-(dimethylamino)ethyl]-1H-indol-4-yl}-6-ethyl-thieno[2,3-d]pyrimidin-4-yl)-D-phenylalanine]",3.24
3,"CCc1sc2ncnc(NC(Cc3ccccc3)C(=O)O)c2c1-c1cccc2c1c(Cl)cn2CCN1CCCC1 [Example 233, N-((5Sa)-5-{3-chloro-1-[2-(pyrrolidin-1-yl)ethyl]-1H-indol-4-yl}-6-ethyl-thieno[2,3-d]pyrimidin-4-yl)-D-phenylalanine]",3.41
4,"CCc1sc2ncnc(NC(Cc3ccccc3)C(=O)O)c2c1-c1cccc2c1c(Cl)cn2CCN1CCCCC1 [Example 235, N-((5Sa)-5-{3-chloro-1-[2-(piperidin-1-yl)ethyl]-1H-indol-4-yl}-6-ethyl-thieno[2,3-d]pyrimidin-4-yl)-D-phenylalanine]",1.39
5,"CCc1sc2ncnc(NC(Cc3ccccc3)C(=O)O)c2c1-c1cccc2c1c(Cl)cn2CCN1CCOCC1 [Example 236, N-((5Ra)-5-{3-chloro-1-[2-(morpholin-4-yl)ethyl]-1H-indol-4-yl}-6-ethyl-thieno[2,3-d]pyrimidin-4-yl)-D-phenylalanine]",13.5
6,"CCc1sc2ncnc(NC(Cc3ccccc3)C(=O)O)c2c1-c1cccc2c1c(Cl)cn2CCN1CCOCC1 [Example 237, N-((5Sa)-5-{3-chloro-1-[2-(morpholin-4-yl)ethyl]-1H-indol-4-yl}-6-ethyl-thieno[2,3-d]pyrimidin-4-yl)-D-phenylalanine]",0.569
7,"CCc1sc2ncnc(NC(Cc3ccccc3)C(=O)O)c2c1-c1cccc2c1c(Cl)cn2CCN1CCN(C)CC1 [Example 238, N-((5Sa)-5-{3-chloro-1-[2-(4-methylpiperazin-1-yl)ethyl]-1H-indol-4-yl}-6-ethyl-thieno[2,3-d]pyrimidin-4-yl)-D-phenylalanine]",2.78
8,"CCc1sc2ncnc(NC(Cc3ccccc3)C(=O)O)c2c1-c1cccc2c1c(Cl)cn2CCN1CCN(C)CC1 [Example 239, N-((5Ra)-5-{3-chloro-1-[2-(4-methylpiperazin-1-yl)ethyl]-1H-indol-4-yl}-6-ethyl-thieno[2,3-d]pyrimidin-4-yl)-D-phenylalanine]",20.3
9,"CCc1sc2ncnc(NC(Cc3ccccc3)C(=O)O)c2c1-c1cccc2c1c(Cl)cn2CCCN1CCN(C)CC1 [Example 240, N-((5Sa)-5-{3-chloro-1-[3-(4-methylpiperazin-1-yl)propyl]-1H-indol-4-yl}-6-ethyl-thieno[2,3-d]pyrimidin-4-yl)-D-phenylalanine]",0.958
10,"CCc1sc2ncnc(NC(Cc3ccccc3)C(=O)O)c2c1-c1cccc2c1c(Cl)cn2CCCN1CCN(C)CC1 [Example 241, N-((5Ra)-5-{3-chloro-1-[3-(4-methylpiperazin-1-yl)propyl]-1H-indol-4-yl}-6-ethyl-thieno[2,3-d]pyrimidin-4-yl)-D-phenylalanine]",14.3
11,"CCc1sc2ncnc(NC(Cc3ccccn3)C(=O)O)c2c1-c1cccc2c1c(Cl)cn2CCN1CCN(C)CC1 [Example 248, N-((5Sa)-5-{3-chloro-1-[2-(4-methylpiperazin-1-yl)ethyl]-1H-indol-4-yl}-6-ethyl-thieno[2,3-d]pyrimidin-4-yl)-3-pyridin-2-yl-D-alanine]",2.18
12,"CCc1sc2ncnc(NC(Cc3ccccn3)C(=O)O)c2c1-c1cccc2c1c(Cl)cn2CCN1CCN(C)CC1 [Example 249, N-((5Ra)-5-{3-chloro-1-[2-(4-methylpiperazin-1-yl)ethyl]-1H-indol-4-yl}-6-ethyl-thieno[2,3-d]pyrimidin-4-yl)-3-pyridin-2-yl-D-alanine]",36.8

# Continued, values first:
row,IC50 [µM],Structure (SMILES)
1,8.36,"CC(C)(O)c1sc2ncnc(NC(Cc3ccccc3)C(=O)O)c2c1-c1cccc2ccccc12 [Example 210, N-[6-(2-hydroxypropan-2-yl)-(5Sa)-5-(naphthalen-1-yl)thieno[2,3-d]pyrimidin-4-yl]-D-phenylalanine]"
2,0.668,"O=C(O)[C@@H](Cc1ccccc1)Nc1ncnc2sc(I)c(-c3cccc4ccccc34)c12 [Example 211, N-[6-iodo-5-(naphthalen-1-yl)thieno[2,3-d]pyrimidin-4-yl]-D-phenylalanine]"
3,0.086,"COc1ccccc1CC(Nc1ncnc2sc(C(C)C)c(-c3cccc(Cl)c3C)c12)C(=O)O [Example 223, N-[(5Sa)-5-(3-chloro-2-methylphenyl)-6-(propan-2-yl)thieno[2,3-d]pyrimidin-4-yl]-2-methoxy-D-phenylalanine]"
4,0.617,"O=C(O)C(Cc1ccccn1)Nc1ncnc2sc(C(F)F)c(-c3cccc4ccccc34)c12 [Example 250, N-[6-(difluoromethyl)-(5Sa)-5-(naphthalen-1-yl)thieno[2,3-d]pyrimidin-4-yl]-3-pyridin-2-yl-D-alanine]"
5,12.1,"O=C(O)C(Cc1ccccn1)Nc1ncnc2sc(C(F)F)c(-c3cccc4ccccc34)c12 [Example 251, N-[6-(difluoromethyl)-(5Ra)-5-(naphthalen-1-yl)thieno[2,3-d]pyrimidin-4-yl]-3-pyridin-2-yl-D-alanine]"
6,0.223,"CCCc1sc2ncnc(NC(Cc3ccccc3)C(=O)O)c2c1-c1cccc2ccccc12 [Example 252, N-[(5Sa)-5-(naphthalen-1-yl)-6-propylthieno[2,3-d]pyrimidin-4-yl]-D-phenylalanine]"
7,1.36,"CCCc1sc2ncnc(NC(Cc3ccccc3)C(=O)O)c2c1-c1cccc2ccccc12 [Example 253, N-[(5Ra)-5-(naphthalen-1-yl)-6-propylthieno[2,3-d]pyrimidin-4-yl]-D-phenylalanine]"

# Same assay, conditions: partial inhibitors; @ 10 μM test compound
row,"percentage fluorescence polarisation inhibition, Mcl-1 FP [% @ 10 μM]",Structure (SMILES)
1,58.95,"Cc1c(Cl)cccc1-c1c(C2CC2)sc2ncnc(NC(Cc3ccccc3)C(=O)O)c12 [Example 216, N-[(5Ra)-5-(3-chloro-2-methylphenyl)-6-cyclopropyl-thieno[2,3-d]pyrimidin-4-yl]-D-phenylalanine]"
2,31.7,"Cc1c(Cl)cccc1-c1c(C(C)C)sc2ncnc(N[C@H](Cc3ccccc3)C(=O)O)c12 [Example 220, N-[(5Ra)-5-(3-chloro-2-methylphenyl)-6-(propan-2-yl)thieno[2,3-d]pyrimidin-4-yl]-D-phenylalanine]"
3,57.15,"CC#Cc1sc2ncnc(N[C@H](Cc3ccccc3OCc3ccnn3C(C)(C)C)C(=O)OCC)c2c1-c1ccc(OCCN2CCN(C)CC2)c(Cl)c1C [Example 257, ethyl 2-[(1-tert-butyl-1H-pyrazol-5-yl)methoxy]-N-[(5Sa)-5-{3-chloro-2-methyl-4-[2-(4-methylpiperazin-1-yl)ethoxy]phenyl}-6-(prop-1-yn-1-yl)thieno[2,3-d]pyrimidin-4-yl]-D-phenylalaninate]"

# Same assay, conditions: partial inhibitors; @ 50 μM test compound
row,Structure (SMILES),"percentage fluorescence polarisation inhibition, Mcl-1 FP [% @ 50 μM]"
1,"CCc1sc2ncnc(N[C@H](Cc3ccccc3)C(=O)O)c2c1-c1cccc2c1c(Cl)cn2CCN(C)C [Example 231, N-((5Ra)-5-{3-chloro-1-[2-(dimethylamino)ethyl]-1H-indol-4-yl}-6-ethyl-thieno[2,3-d]pyrimidin-4-yl)-D-phenylalanine]",56.75
2,"CCc1sc2ncnc(N[C@H](Cc3ccccc3)C(=O)O)c2c1-c1cccc2c1c(Cl)cn2CCN1CCCC1 [Example 232, N-((5Ra)-5-{3-chloro-1-[2-(pyrrolidin-1-yl)ethyl]-1H-indol-4-yl}-6-ethyl-thieno[2,3-d]pyrimidin-4-yl)-D-phenylalanine]",62.2
3,"CCc1sc2ncnc(NC(Cc3ccccc3)C(=O)O)c2c1-c1cccc2c1c(Cl)cn2CCN1CCCCC1 [Example 234, N-((5Ra)-5-{3-chloro-1-[2-(piperidin-1-yl)ethyl]-1H-indol-4-yl}-6-ethyl-thieno[2,3-d]pyrimidin-4-yl)-D-phenylalanine]",68.7

# More lines, now with the values ahead:
row,"percentage fluorescence polarisation inhibition, Mcl-1 FP [% @ 50 μM]",Structure (SMILES)
1,71.5,"Cc1c(Cl)cccc1-c1c(C(C)C)sc2ncnc(N[C@@H](Cc3ccccc3)C(=O)O)c12 [Example 218, N-[(5Sa)-5-(3-chloro-2-methylphenyl)-6-(propan-2-yl)thieno[2,3-d]pyrimidin-4-yl]-L-phenylalanine]"
2,70,"COc1ccccc1C[C@@H](Nc1ncnc2sc(C(C)C)c(-c3cccc(Cl)c3C)c12)C(=O)O [Example 222, N-[(5Ra)-5-(3-chloro-2-methylphenyl)-6-(propan-2-yl)thieno[2,3-d]pyrimidin-4-yl]-2-methoxy-D-phenylalanine]"

# Same assay, conditions: partial inhibitors; @ 200 μM test compound
row,"percentage fluorescence polarisation inhibition, Mcl-1 FP [% @ 200 μM]",Structure (SMILES)
1,56.85,"CC(C)(O)c1sc2ncnc(NC(Cc3ccccc3)C(=O)O)c2c1-c1cccc2ccccc12 [Example 209, N-[6-(2-hydroxypropan-2-yl)-(5Ra)-5-(naphthalen-1-yl)thieno[2,3-d]pyrimidin-4-yl]-D-phenylalanine]"
2,22.08,"CCc1sc2ncnc(N[C@H](Cc3ccccc3)C(=O)OC)c2c1-c1cccc2ccccc12 [Example 254, methyl N-[6-ethyl-(5Sa)-5-(naphthalen-1-yl)thieno[2,3-d]pyrimidin-4-yl]-D-phenylalaninate]"
3,41.08,"CCc1sc2ncnc(NC(Cc3ccccc3)C(=O)OC)c2c1-c1cccc2ccccc12 [Example 255, methyl N-[6-ethyl-(5Ra)-5-(naphthalen-1-yl)thieno[2,3-d]pyrimidin-4-yl]-D-phenylalaninate]"

# Reference: patent US10457687B2, “Aminoacid derivatives, a process for their preparation and pharmaceutical compositions containing them” (LES LABORATOIRES SERVIER, priority 2015, dated 2019)
